pIC50: −log10 of the molar value.
Molecular target: T1, human LPA1 (Homo sapiens, UniProt Q92633)
T1 construct: expressed in transfected cells; host or cells: Chinese hamster ovary (CHO) cells
Assay: LPA1 functional antagonist assay (LPA-induced calcium flux)
Format: cell-based
Settings: CHO cells overexpressing human LPA1; inhibition of calcium flux induced by 10 nM LPA; read-out: hLPA1 IC50
Outline: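 CHO cells overexpressing human LPA1, loaded with calcium dye, given compound (0.08 nM–5 μM final, 0.5% DMSO) for 20 min at room temperature in HBSS/HEPES with 0.1% fatty-acid-free BSA, then stimulated with 10 nM LPA. IC50 defined as 50% inhibition of LPA-induced calcium flux, from 4-parameter logistic fit.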

T1 sequence (Q92633 whole entry): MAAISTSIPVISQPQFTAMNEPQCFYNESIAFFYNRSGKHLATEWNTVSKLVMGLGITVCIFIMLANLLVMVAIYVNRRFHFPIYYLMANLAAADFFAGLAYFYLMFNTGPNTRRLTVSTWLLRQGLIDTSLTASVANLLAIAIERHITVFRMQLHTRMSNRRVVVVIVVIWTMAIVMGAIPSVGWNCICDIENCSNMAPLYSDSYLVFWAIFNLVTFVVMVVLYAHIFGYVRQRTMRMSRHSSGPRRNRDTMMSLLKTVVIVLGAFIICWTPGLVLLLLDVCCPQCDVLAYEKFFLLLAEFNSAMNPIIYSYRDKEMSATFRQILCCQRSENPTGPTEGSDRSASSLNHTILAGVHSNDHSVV

Row | Compound | pIC50
1 | CCCCN(C)C(=O)OCc1c(-c2ccc(O[C@H]3CC[C@H](CC(=O)O)C3)c(C)n2)nnn1C (single isomer, unassigned) [Example 5, (±)-Trans-2-(3-((6-(5-(((butyl(methyl)carbamoyl)oxy)methyl)-1-methyl-1H-1,2,3-triazol-4-yl)-2-methylpyridin-3-yl)oxy)cyclopentyl)acetic Acid] | 6.02
2 | Cc1nc(-c2nnn(C)c2COC(=O)N(C)CC2CCC2)ccc1O[C@H]1CC[C@H](CC(=O)O)C1 (single isomer, unassigned) [Example 7, (±)-Trans-2-((1,3)-3-((6-(5-((((cyclobutylmethyl)(methyl)carbamoyl)oxy)methyl)-1-methyl-1H-1,2,3-triazol-4-yl)-2-methylpyridin-3-yl)oxy)cyclopentyl) acetic Acid] | 6.12
3 | Cc1nc(-c2cnn(C)c2COC(=O)N(C)CC2CCC2)cnc1O[C@H]1CC[C@H](C(=O)O)C1 (single isomer, unassigned) [Example 17] | 6.38
4 | Cc1nc(-c2cnn(C)c2CNC(=O)OCc2ccccc2)cnc1O[C@H]1CC[C@H](C(=O)O)C1 (single isomer, unassigned) [Example 19, Trans-3-((5-(5-((((benzyloxy)carbonyl)amino)methyl)-1-methyl-1H-pyrazol-4-yl)-3-methylpyrazin-2-yl)oxy)cyclopentanecarboxylic Acid] | 6.69
5 | Cc1nc(-c2nnn(C)c2COC(=O)N(C)CC2CCC2)cnc1O[C@H]1CC[C@H](CC(=O)O)C1 (single isomer, unassigned) [Example 27, 2-(trans-3-((5-(5-((((cyclobutylmethyl)(methyl)carbamoyl)oxy)methyl)-1-methyl-1H-1,2,3-triazol-4-yl)-3-methylpyrazin-2-yl)oxy)cyclopentyl)acetic Acid] | 6.59
6 | Cc1nc(-c2nnn(C)c2COC(=O)N(C)CC2CCC2)cnc1O[C@H]1CC[C@H](CC(=O)O)C1 (single isomer, unassigned) [Example 28, 2-(trans-3-((5-(5-((((cyclobutylmethyl)(methyl)carbamoyl)oxy)methyl)-1-methyl-1H-1,2,3-triazol-4-yl)-3-methylpyrazin-2-yl)oxy)cyclopentyl)acetic Acid] | 5.43
7 | Cc1noc(-c2ccc(OC3CCC(C(=O)O)C3)cn2)c1CNc1nccc(-c2ccccc2)n1 (single isomer, unassigned) [Example 44] | 6.80

Now those with a higher pIC50, led by results:

Row | pIC50 | Compound
8 | 7.25 | Cc1nc(-c2nnn(C)c2CNC(=O)OCc2ccccc2)ccc1O[C@@H]1CC[C@@H](C(=O)O)C1 (single isomer, unassigned) [Example 21, Trans-3-((6-(5-((((benzyloxy)carbonyl)amino)methyl)-1-methyl-1H-1,2,3-triazol-4-yl)-2-methyl-pyridin-3-yl)oxy)cyclopentane carboxylic acid]
9 | 7.25 | Cc1noc(-c2ccc(OC3CCC(C(=O)O)C3)cn2)c1CNc1nccc(-c2ccccc2)n1 (single isomer, unassigned) [Example 46]
10 | 7.30 | Cc1noc(-c2ccc(OC3CCC(C(=O)O)C3)cn2)c1CNc1nccc(-c2ccccc2)n1 (single isomer, unassigned) [Example 43]
11 | 7.77 | Cc1noc(-c2ccc(OC3CCC(C(=O)O)C3)cn2)c1CNc1nccc(-c2ccccc2)n1 (single isomer, unassigned) [Example 45]
12 | 7.96 | Cc1nc(-c2nnn(C)c2COC(=O)N(C)CC2CCC2)ccc1O[C@H]1CC[C@H](CC(=O)O)C1 (single isomer, unassigned) [Example 6, (±)-Trans-2-((1,3)-3-((6-(5-((((cyclobutylmethyl)(methyl)carbamoyl)oxy)methyl)-1-methyl-1H-1,2,3-triazol-4-yl)-2-methylpyridin-3-yl)oxy)cyclopentyl) acetic Acid]
13 | 7.97 | Cc1nc(-c2nnn(C)c2COC(=O)N(C)CC2CCC2)ccc1OC[C@@H]1CC[C@H](C(=O)O)C1 (single isomer, unassigned) [Example 31]
14 | 8.01 | Cc1nc(-c2nnn(C)c2COC(=O)N(C)CC2CCC2)ccc1OC[C@H]1CC[C@@H](C(=O)O)C1 (single isomer, unassigned) [Example 32]

— US12209072B2, “Cyclopentyl acids as LPA antagonists” (BRISTOL-MYERS SQUIBB COMPANY, priority 2018, dated 2025)
